# Data taken from the supplement of paper PMC11061612.
# How the values were obtained:
# Test in all cases: Bliss excess, mean over the matrix (fraction); higher = more synergy
# [1] = system: TE-9 (Esophageal Squamous Cell Carcinoma)
# In short: (§1)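 After 24 hours at 37°C and 5% CO2 in 1536-well plates, cells in DMEM/F12 or RPMI plus 10% FBS received two-drug dose matrices for 72 hours. Viability came from CellTiter-Glo 2.0 luminescence and was scaled as inhibition, anchored at 0 by vehicle wells and at 1 by blank wells. Combination Emax is taken as the second-highest inhibition in the matrix, and Bliss excess as the observed combination effect less EA + EB − EA·EB, with EA and EB the single-agent effects.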
# [2] = system: KELLY (Neuroblastoma)
# In short: as §1
# [3] = system: TE-15 (Esophageal Squamous Cell Carcinoma)
# In short: as §1
# [4] = system: MFE-296 (Endometrial Carcinoma)
# In short: as §1
# [5] = system: KURAMOCHI (Ovarian Carcinoma)
# In short: as §1
# [6] = system: NCI-H82 (Small Cell Lung Carcinoma)
# In short: as §1
# [7] = system: NB10 (Neuroblastoma)
# In short: as §1
# [8] = system: MDA-MB-361 (Breast Carcinoma)
# In short: as §1
# [9] = system: RC-K8 (B-Cell Non-Hodgkin's Lymphoma)
# In short: as §1
# [10] = system: HO-1-N-1 (Oral Cavity Carcinoma)
# In short: as §1
# [11] = system: NOS-1 (Osteosarcoma)
# In short: as §1
# [12] = system: OVCA420 (Ovarian Carcinoma)
# In short: as §1
# [13] = system: ES4 (Ewing's Sarcoma)
# In short: as §1
# [14] = system: EC-GI-10 (Esophageal Squamous Cell Carcinoma)
# In short: as §1
# [15] = system: LS-180 (Colorectal Carcinoma)
# In short: as §1
# [16] = system: B-CPAP (Thyroid Gland Carcinoma)
# In short: as §1
# [17] = system: SK-ES-1 (Ewing's Sarcoma)
# In short: as §1
# [18] = system: DoTc2-4510 (Cervical Carcinoma)
# In short: as §1
# [19] = system: KYSE-520 (Esophageal Squamous Cell Carcinoma)
# In short: as §1
# [20] = system: 42-MG-BA (Glioblastoma)
# In short: as §1
SMILES,Bliss excess [1],Bliss excess [2],Bliss excess [3],Bliss excess [4],Bliss excess [5],Bliss excess [6],Bliss excess [7],Bliss excess [8],Bliss excess [9],Bliss excess [10],Bliss excess [11],Bliss excess [12],Bliss excess [13],Bliss excess [14],Bliss excess [15],Bliss excess [16],Bliss excess [17],Bliss excess [18],Bliss excess [19],Bliss excess [20]
"Cc1c2c(nn1C)CSCc1cc(n(C)n1)CSc1cc(c3ccccc3c1)OCCCc1c(C(=O)O)n(C)c3c-2c(Cl)ccc13 [AZD5991] + C[C@@H]1COCCN1C2=NC(=NC(=C2)C3(CC3)[S@](=N)(=O)C)C4=C5C=CNC5=NC=C4 [AZD6738] (first compound max 1 µM, 7x7, partner max 10 µM)",-0.0039,0.0647,-0.0441,0.0723,0.0587,-0.0218,0.0339,0.0182,0.0114,-0.0134,0.0854,0.0076,-0.0118,0.061,0.0196,0.0032,0.017,-0.0327,0.0162,0.041
"CN(CCO)CC[C@H](CSc1ccccc1)Nc1ccc(S(=O)(=O)NC(=O)c2ccc(N3CCC([C@@H](O)c4ccccc4-c4ccc(Cl)cc4)CC3)cc2)cc1S(=O)(=O)C(F)(F)F [AZD4320] + C[C@@H]1COCCN1C2=NC(=NC(=C2)C3(CC3)[S@](=N)(=O)C)C4=C5C=CNC5=NC=C4 [AZD6738] (first compound max 1 µM, 7x7, partner max 10 µM)",0.0198,0.033,-0.041,0.0178,0.0158,-0.0251,-0.0515,-0.0402,-0.011,0.026,0.038,0.006,0.0351,-0.0341,-0.0306,-0.0422,0.0339,-0.0202,-0.0026,0.0154
"Cc1c2c(nn1C)CSCc1cc(n(C)n1)CSc1cc(c3ccccc3c1)OCCCc1c(C(=O)O)n(C)c3c-2c(Cl)ccc13 [AZD5991] + CCN(CCO)CCCOc1ccc2c(Nc3cc(CC(=O)Nc4cccc(F)c4)[nH]n3)ncnc2c1 [AZD2811] (first compound max 1 µM, 7x7, partner max 1 µM)",-0.0235,0.0071,0.0649,0.0533,-0.0046,0.103,0.0335,0.0399,0.09,0.0237,-0.0222,-0.0245,0.0003,0.156,0.0652,0.0082,0.0028,0.0509,-0.0272,0.0282
"NC1(C(=O)N[C@@H](CCO)c2ccc(Cl)cc2)CCN(c2ncnc3[nH]ccc23)CC1 [Capivasertib] + Cn1cnc2c(F)c(Nc3ccc(Br)cc3Cl)c(C(=O)NOCCO)cc21 [Selumetinib] (first compound max 10 µM, 7x7, partner max 10 µM)",-0.0011,0.0266,0.0234,-0.0133,0.0079,-0.131,0.037,0.0297,0.0248,0.105,-0.019,0.0639,-0.0219,0.0744,-0.0247,0.0496,0.0507,0.0133,-0.042,0.0697
"CC(=O)Nc1cccc(-n2c(=O)n(C3CC3)c(=O)c3c(Nc4ccc(I)cc4F)n(C)c(=O)c(C)c32)c1 [Trametinib] + Cc1nc(-c2cn3c(n2)-c2ccc(-c4cnn(C(C)(C)C(N)=O)c4)cc2OCC3)n(C(C)C)n1 [Taselisib] (first compound max 1 µM, 7x7, partner max 10 µM)",0.073,0.132,0.0816,0.0323,0.115,0.0361,0.118,0.0263,0.0907,0.268,0.191,0.0806,0.0891,0.112,0.0957,0.141,0.0641,0.143,0.0534,0.0593
"NC1(C(=O)N[C@@H](CCO)c2ccc(Cl)cc2)CCN(c2ncnc3[nH]ccc23)CC1 [Capivasertib] + CCN(CCO)CCCOc1ccc2c(Nc3cc(CC(=O)Nc4cccc(F)c4)[nH]n3)ncnc2c1 [AZD2811] (first compound max 10 µM, 7x7, partner max 1 µM)",-0.0124,-0.0045,-0.0095,-0.0593,-0.0444,0.0054,-0.0793,0.0141,-0.0114,-0.046,0.0431,-0.017,0.0317,0.06,-0.0053,-0.0298,-0.0359,-0.0749,-0.0495,-0.0306
"CN(CCO)CC[C@H](CSc1ccccc1)Nc1ccc(S(=O)(=O)NC(=O)c2ccc(N3CCC([C@@H](O)c4ccccc4-c4ccc(Cl)cc4)CC3)cc2)cc1S(=O)(=O)C(F)(F)F [AZD4320] + C1CN(CCC1(C(=O)N[C@@H](CCO)C2=CC=C(C=C2)Cl)N)C3=NC=NC4=C3C=CN4 [Capivasertib] (first compound max 1 µM, 7x7, partner max 3 µM)",0.0169,-0.0433,-0.042,-0.0255,-0.0393,0.0177,-0.0288,-0.0442,-0.0241,-0.0187,-0.0386,-0.0601,-0.0333,0.0003,-0.0389,-0.0377,0.0827,0.0501,-0.0696,-0.0479
"CC(=O)c1c(C)c2cnc(Nc3ccc(N4CCNCC4)cn3)nc2n(C2CCCC2)c1=O [Palbociclib] + Cc1c2c(nn1C)CSCc1cc(n(C)n1)CSc1cc(c3ccccc3c1)OCCCc1c(C(=O)O)n(C)c3c-2c(Cl)ccc13 [AZD5991] (first compound max 10 µM, 7x7, partner max 1 µM)",-0.0334,0.0123,-0.0236,-0.0142,0.0188,-0.0534,0.0435,-0.0789,-0.0555,-0.0554,-0.0006,-0.0313,-0.046,0.0305,-0.0515,-0.0722,-0.0088,-0.0143,-0.0686,-0.0391
"Cn1cnc2c(F)c(Nc3ccc(Br)cc3Cl)c(C(=O)NOCCO)cc21 [Selumetinib] + CC(C)n1c(=O)n(C)c2cnc3cc(F)c(-c4ccc(OCCCN5CCCCC5)nc4)cc3c21 [AZD1390] (first compound max 10 µM, 7x7, partner max 0.3 µM)",-0.0228,-0.0177,-0.0359,-0.0529,-0.055,-0.0349,-0.0323,-0.044,-0.0253,0.0053,0.0117,0.0018,-0.0515,-0.0359,-0.0519,-0.0222,-0.0246,-0.0401,-0.0115,-0.0321
"CN(CCO)CC[C@H](CSc1ccccc1)Nc1ccc(S(=O)(=O)NC(=O)c2ccc(N3CCC([C@@H](O)c4ccccc4-c4ccc(Cl)cc4)CC3)cc2)cc1S(=O)(=O)C(F)(F)F [AZD4320] + C=CCn1c(=O)c2cnc(Nc3ccc(N4CCN(C)CC4)cc3)nc2n1-c1cccc(C(C)(C)O)n1 [AZD1775] (first compound max 1 µM, partner max 1 µM)",0.0368,0.0505,-0.0137,-0.0075,0.0419,0.0113,0.0304,-0.034,0.0829,-0.0023,0.0894,-0.0291,0.12,-0.0597,0.0046,0.0808,0.093,0.0205,-0.0172,-0.027
"CC1(C)CCC(CN2CCN(c3ccc(C(=O)NS(=O)(=O)c4ccc(NCC5CCOCC5)c([N+](=O)[O-])c4)c(Oc4cnc5[nH]ccc5c4)c3)CC2)=C(c2ccc(Cl)cc2)C1 [Venetoclax] + C1CN(CCC1(C(=O)N[C@@H](CCO)C2=CC=C(C=C2)Cl)N)C3=NC=NC4=C3C=CN4 [Capivasertib] (first compound max 1 µM, 7x7, partner max 3 µM)",-0.0114,0.0017,-0.0429,-0.0063,-0.0538,-0.0458,-0.0808,0.0068,-0.0173,-0.0176,-0.0157,-0.0357,-0.0231,-0.0488,-0.0173,-0.0312,0.0068,-0.0185,-0.0575,-0.0239
"COc1nnc2ccc(N3CCC(c4ccc(OCCN5CCN(C)C(=O)[C@H]5C)cc4)CC3)nn12 [AZD5153] + Cn1cnc2c(F)c(Nc3ccc(Br)cc3Cl)c(C(=O)NOCCO)cc21 [Selumetinib] (first compound max 1 µM, 7x7, partner max 10 µM)",-0.0161,0.13,0.0225,-0.0519,-0.0242,-0.0771,-0.0687,0.0073,-0.048,0.0226,0.066,0.0303,-0.0697,0.0858,-0.0284,-0.0435,-0.0188,-0.0002,0.0018,-0.0245
